Assay results published in patent US20210093715A1, “ANTI-ANGIOGENESIS THERAPY FOR THE TREATMENT OF BREAST CANCER” (Genentech, Inc., priority 2008, published 2021).
Like-named read-outs stand apart in the source and are kept apart here.

Key:
[1] = test system: previously treated metastatic breast cancer; details: capecitabine + bevacizumab vs capecitabine alone; cited from earlier work
[2] = test system: previously untreated locally recurrent or metastatic HER2-negative breast cancer
Excerpt: (§1) The primary objective of the study was to determine the clinical benefit of the addition of bevacizumab to standard chemotherapy regimes for previously untreated metastatic breast cancer, as measured by PFS based on investigator tumor assessment. See, e.g., O'Shaughnessy and Brufsky, (2008), Clinical Breast Cancer, 8(4): 370-373. The trial comprised two study groups that evaluated AVASTIN® with different types of chemotherapies in women who had not previously received chemotherapy for their advanced HER2-negative breast cancer. In the first study group, women received either AVASTIN or placebo in combination with taxane or anthracycline-based chemotherapies. In the second study group, women received either AVASTIN or placebo in combination with capecitabine chemotherapy. The analysis of this example was based on information from 1237 patients. These trials evaluated the efficacy of bevacizumab (AVASTIN®) as therapy for patients previously untreated metastic breast cancer.
(§2) In the RIBBON1 trial, the following treatment protocol was used:
(§3) Arm A: bevacizumab 15 mg/kg IV on day 1 of each 21-day cycle and either cohort 1, cohort 2 or cohort 3;
(§4) Arm B: placebo IV on day 1 of each 21-day cycle and either cohort 1, cohort 2 or cohort 3.
(§5) Cohort 1: Either of the following taxanes administered every 3 weeks
(§6) Cohort 2: Any of the following anthracycline-based combination chemotherapies, for subjects previously untreated with anthracyclines, every 3 weeks:
(§7) Cohort 3: Capecitabine 1000 mg/m^2 oral twice daily on Days 1-14 of each 3-week cycle.
The secondary endpoints included objective response rate (ORR), one-year survival rate, overall survival (OS), and PFS based on IRC assessment and safety. OS is defined as the time from randomization until death from any cause. ORR is defined as the percentage of patients who achieved a complete or partial response confirmed ≥28 days after initial documentation of response. One-year survival rate is assessed between treatment arms using the normal approximation method. ORR in patients with measurable disease at baseline is compared using the stratified Mantel-Haenszel χ2 test. Randomization stratification factors are included in all stratified analyses.

metastatic breast cancer [3] = details: docetaxel + bevacizumab (7.5 and 15 mg/kg q3w) vs docetaxel alone; cited from earlier work
metastatic breast cancer [4] = details: weekly paclitaxel + bevacizumab vs paclitaxel alone; cited from earlier work
[5] = test system: previously untreated locally recurrent or metastatic HER2-negative breast cancer; test: RIBBON1 randomized phase III trial, efficacy (PFS, ORR, OS) of bevacizumab or placebo with chemotherapy; type: in vivo, human; details: for % of deaths: overall survival analysis; for ORR (%) / ORR, number of patients with objective response: patients with measurable disease; for median duration of objective response: among responders; for PFS compared to chemotherapies alone (in words): bevacizumab added to capecitabine, taxane or anthracycline-based chemotherapy, 1st-line
Excerpt: as §1, §2, §3, §4, §5
Paclitaxel protein-bound particles (Abraxane®) 260 mg/m^2 IV
as §6
FEC: 5-fluorouracil 500 mg/m^2 IV, epirubicin 90-100 mg/m^2 IV and cyclophosphamide 500 mg/m^2 IV on Day 1
FAC: 5-fluorouracil 500 mg/m^2 IV, doxorubicin 50 mg/m^2 IV and cyclophosphamide 500 mg/m^2 IV on Day 1
AC: Doxorubicin 50-60 mg/m^2 IV and cyclophosphamide 500-600 mg/m^2 IV on Day 1
EC: Epirubicin 90-100 mg/m^2 IV and cyclophosphamide 500-600 mg/m^2 IV on Day 1
as §7
All subjects had histologically or cytologically confirmed adenocarcinoma of the breast, subjects may have had either measureable (per the Response Evaluation Criteria in Solid Tumors (RECIST)) or non-measureable locally recurrent or metastatic disease. The locally recurrent disease was not amenable to resection with curative intent.
The trial was conducted worldwide (at least 22 countries) and accrued 1237 subjects/patients (Taxane (T): 307; Anthracycline (Anthra): 315; and Capecitabine (Cap): 615).
The primary endpoint of the study was progression free survival (PFS), defined as the time from randomization to disease progression or to death, based on investigator assessment. Kaplan-Meier methodology can be used to estimate median PFS for each treatment arm. In certain embodiments, the hazard ratio for PFS will be estimated using a stratified Cox regression model with the same stratification factors used in the stratified log-rank test. Analyses of PFS in each cohort is performed at the two-sided α=0.05 level. Time-to-event data are compared between treatment arms using a stratified log-rank test. The Kaplan-Meier method is used to estimate duration of time-to-event data. The 95% confidence intervals for median time-to-event are computed using the Brookmeyer-Crowley method. The HR for time-to-event data are estimated using a stratified Cox regression model.
The secondary endpoints included objective response rate (ORR), one-year survival rate, overall survival (OS), and PFS based on IRC assessment and safety. OS is defined as the time from randomization until death from any cause. ORR is defined as the percentage of patients who achieved a complete or partial response confirmed ≥28 days after initial documentation of response. One-year survival rate is assessed between treatment arms using the normal approximation method. ORR in patients with measurable disease at baseline is compared using the stratified Mantel-Haenszel χ2 test.

[6] = Cap cohort, BV arm = bevacizumab + capecitabine, PL arm = placebo + capecitabine, investigator assessment
[7] = Cap cohort, BV or placebo + capecitabine
[8] = Cap cohort, second PFS figure of b186, assessor not stated (FIG. 2 shows INV and IRC)
[9] = T/Anthra cohort, BV or placebo + taxane/anthracycline

Compound: BV: recombinant humanized anti-VEGF monoclonal antibody, human IgG1 framework with CDRs from murine antibody A.4.6.1
- PFS (primary objective) [1]: failed to meet its primary objective of improving PFS
- overall response rate (ORR) [1]: higher
- AEs leading to study drug (PL or BV) discontinuation ([2]; Anthra cohort): 14.3%
- SAEs ([2]; Anthra cohort): 22.4%
- AEs leading to study drug (PL or BV) discontinuation ([2]; Cape cohort): 11.9%
- SAEs ([2]; Cape cohort): 24.3%
- AEs leading to death (excludes AEs related to metastatic breast cancer progression) ([2]; Taxane cohort): 3.4%
- AEs leading to study drug (PL or BV) discontinuation ([2]; Taxane cohort): 24.1%
- SAEs ([2]; Taxane cohort): 41.4%
- Safety ([2]; bevacizumab + chemotherapy, all cohorts): consistent with results of prior bevacizumab trials
- progression-free survival (PFS) (metastatic breast cancer [3]): longer
- progression-free survival (PFS) (metastatic breast cancer [4]): significantly longer
- mPFS, mo (median PFS) ([5]; Anthra subgroup, BV or placebo + anthracycline-based chemotherapy): 9.2 mo
- PFS HR (95% CI) ([5]; Anthra subgroup, BV vs PL): 0.55 (0.40-0.74)
- PFS Median (months) [5, 6]: 8.6 months
- Median OS (months) [5, 7]: 29.0 months
- PFS HR (95% CI) ([5]; Cap cohort, bevacizumab 15 mg/kg q3w + capecitabine vs placebo + capecitabine, investigator assessment): 0.688
- OS (HR, 95% CI) ([5]; Cap cohort, bevacizumab + capecitabine vs placebo + capecitabine): 0.85 (0.63-1.14)
- OS (HR, 95% CI) ([5]; Cap cohort, bevacizumab + capecitabine vs placebo + capecitabine, listed as B): 0.847
- % of deaths ([5]; Cap cohort): 30%
- ORR (%) [5, 7]: (35.4%)
- PFS [5, 8]: 9.7 months
- median duration of objective response ([5]; Capecitabine cohort): 9.2 months
- PFS Median (months) ([5]; T/Anthra cohort, BV arm = bevacizumab + taxane/anthracycline, PL arm = placebo + taxane/anthracycline, investigator assessment): 9.2 months
- Median OS (months) [5, 9]: 25.2 months
- PFS HR (95% CI) ([5]; T/Anthra cohort, bevacizumab 15 mg/kg q3w + taxane/anthracycline vs placebo + taxane/anthracycline, investigator assessment): 0.644
- OS (HR, 95% CI) ([5]; T/Anthra cohort, bevacizumab + taxane/anthracycline vs placebo + taxane/anthracycline): 1.03 (0.77-1.38)
- OS (HR, 95% CI) ([5]; T/Anthra cohort, bevacizumab + taxane/anthracycline vs placebo + taxane/anthracycline, listed as B): 1.032
- % of deaths ([5]; T/Anthra cohort): 34%
- ORR (%) [5, 9]: (51.3%)
- ORR, number of patients with objective response [5, 9]: 177
- PFS ([5]; T/Anthra cohort, second PFS figure of b186, assessor not stated (FIG. 3 shows INV and IRC)): 10.7 months
- mPFS, mo (median PFS) ([5]; Taxane subgroup, BV or placebo + docetaxel or Abraxane): 9.2 mo
- PFS HR (95% CI) ([5]; Taxane subgroup, BV vs PL): 0.75 (0.56-1.01)
- PFS compared to chemotherapies alone (in words) [5]: statistically-significant improvement in PFS
- PFS compared to chemotherapies alone (in words) ([5]; listed as AVASTIN®): increased the time women lived without their disease advancing
- median duration of objective response ([5]; taxane/anthracycline cohort): 8.3 months

Compound: CCCCCOC(=O)Nc1nc(=O)n([C@@H]2O[C@H](C)[C@@H](O)[C@H]2O)cc1F [Cap, capecitabine, reference compound]
- AEs leading to death (excludes AEs related to metastatic breast cancer progression) ([2]; Cape cohort): 2.5%
- AEs leading to study drug (PL or BV) discontinuation ([2]; female, human, in vivo): 11.9%
- SAEs ([2]; female, human, in vivo): 18.9%
- Selected AEs (previously shown to be associated with bevacizumab) ([2]; female, human, in vivo): 9.0%
- 1-yr survival rate (%) ([5]; Cap cohort): 74%
- PFS Median (months) [5, 6]: 5.7 months
- Median OS (months) [5, 7]: 21.2 months
- % of deaths ([5]; Cap cohort): 35%
- ORR (%) [5, 7]: (23.6%)
- ORR, number of patients with objective response [5, 7]: 38
- PFS [5, 8]: 6.2 months
- median duration of objective response ([5]; Capecitabine cohort): 7.2 months
